Test results published in PubChem BioAssay AID2060611 (Molecular Pharmacology Branch, DTP, NCI, 2025).

Test system: 628569-122-R-J1-PDC complex spheroid viability
Assay: Anticancer human tumor 628569-122-R-J1-PDC patient-derived head and neck squamous carcinoma cell line growth inhibition [CLK]
Conditions: for IC50: curve of first compound; for viability, T/C: stronger effect = lower value
Source text: A high-throughput screen of multi-cell type tumor spheroids was designed to identify active combinations of […] and targeted small molecules. Complex spheroids include a stromal component modeled by human endothelial cells (HUVEC) and fibroblasts modeled by human mesenchymal stem cells (MSCs). The concentration ranges selected for each drug and investigational agent were based upon clinically achievable concentrations if the clinical Cmax of the agent was known.
Compounds. The drugs and investigational agents: cirtuvivint (SM08502; NSC835563), CC-671 (NSC850746), vemurafenib (NSC761431), tapotoclax (NSC804041), sotorasib (NSC818433), adagrasib (NSC831453), MRTX-1133 (NSC836407), BAY2416964 (NSC825713), copanlisib (NSC816437), inavolisib (NSC800729), abemaciclib (NSC768073), osimertinib (NSC779217), entinostat (NSC756642), eltanexor (KPT-8602, NSC794443), venetoclax (NSC766270), ceralasertib (NSC777638), bortezomib (NSC756655), olaparib (NSC753686), talazoparib (NSC767125), alisertib (NSC759677), peposertib (NSC802822), gemcitabine (NSC613327), 5-fluorouracil (NSC19893), SN-38 (NSC673596), oxaliplatin (NSC266046), paclitaxel (NSC125973), and doxorubicin (NSC123127), were obtained from the National Cancer Institute (NCI) Developmental Therapeutics Program Chemical Repository. The FDA-approved anticancer drug set is available from the Developmental Therapeutics Program at https://dtp.cancer.gov/organization/dscb/obtaining/available plates.htm. […] The stock solutions were prepared in dimethyl sulfoxide (DMSO, Sigma-Aldrich, St. Louis, MO, cat. D2650), except for the platinum complexes which were prepared in saline (Quality Biological, Gaithersburg, MD, cat. 114-055-101), at 800-fold the tested concentration and stored at -70 degrees C prior to their use. All drugs and investigational agents were tested over a range starting from a high concentration at or near the clinical Cmax and decreasing in half-log increments. If the clinical Cmax for an agent had not been determined, the highest concentration tested was 10 microM.
Cell Culture. All cells were maintained in an incubator at 37 degrees C and 5% CO2 with 95% humidity. The PDC lines were cultured according to standard operating procedures established by the NCI PDMR. Briefly, all PDCs were thawed and cultured in Matrigel-coated flasks prepared with a working solution of 1X Ham's F-12 nutrient mix, without supplementation (Invitrogen, Waltham, MA, cat. 11765054), 100 U/mL penicillin-streptomycin (Invitrogen, cat. 15140122), and 2.5% Matrigel (Corning Inc., Corning, NY, cat. 354248) for the first three passages. The 947758-054-R-J2-PDC line was cultured in 6B/Colon 1A media, which includes advanced DMEM/F-12 (Thermo Fisher Scientific, cat. 12634028), 10 mM HEPES (Thermo Fisher Scientific, cat. 15630080), 1X GlutaMAX supplement (Thermo Fisher Scientific, cat. 35050061), 0.1 mg/mL primocin (InvivoGen, cat. ant-pm-2), 10% defined fetal bovine serum, heat inactivated (HyClone Laboratories Inc., cat. SH30070.03HI), 1.25 mM N-Acetyl-L-cysteine (Sigma-Aldrich, cat. A9165), 10 mM nicotinamide (Sigma-Aldrich, cat. N0636), 1X B-27 supplement (Thermo Fisher Scientific, cat. 17504044), 1X N-2 supplement (Thermo Fisher Scientific, cat. 17502048), and 10 microM Y-27632 dihydrochloride (Tocris Bioscience, cat. 1254). The 876862-298-R-J1-PDC was cultured in 6E media, which includes all 6B/Colon 1A media components plus 50% L-WRN conditioned media (ATCC, cat. CRL-3276), 50 ng/mL recombinant human EGF recombinant protein (hEGF; Thermo Fisher Scientific, cat. PHG0311), 10 ng/mL recombinant human fibroblast growth factor 10 (hGFG-10; PeproTech, cat. 100-26), 1 ng/mL recombinant human fibroblast growth factor 2 (hFGF-2; PeproTech, cat. 100-18B), and 1 µM prostaglandin E2 (PGE2; Tocris, cat. 2296). The 227483-062-R1-J1-PDC line was cultured in Panc media, containing all 6E components except hFGF-2, with the addition of 500 nM SB-431542 (Selleckchem, cat. S1067) and 10 nM gastrin (Tocris, cat. 3006). […]

[1] = second compound 0.0316 µM, first compound 0.0316 µM
[2] = second compound 0.0316 µM, first compound 0.1 µM
[3] = second compound 0.0316 µM, first compound 0.316 µM
[4] = second compound 0.0316 µM, first compound 1 µM
[5] = second compound 0.0316 µM, first compound 3.16 µM
[6] = second compound 0.0316 µM, first compound 10 µM
[7] = second compound 0.1 µM, first compound 0.0316 µM
[8] = second compound 0.1 µM, first compound 0.1 µM
[9] = second compound 0.1 µM, first compound 0.316 µM
[10] = second compound 0.1 µM, first compound 1 µM
[11] = second compound 0.1 µM, first compound 3.16 µM
[12] = second compound 0.1 µM, first compound 10 µM
[13] = second compound 0.316 µM, first compound 0.0316 µM
[14] = second compound 0.316 µM, first compound 0.1 µM
[15] = second compound 0.316 µM, first compound 0.316 µM
[16] = second compound 0.316 µM, first compound 1 µM
[17] = second compound 0.316 µM, first compound 3.16 µM
[18] = second compound 0.316 µM, first compound 10 µM
[19] = second compound 1 µM, first compound 0.0316 µM
[20] = second compound 1 µM, first compound 0.1 µM
[21] = second compound 1 µM, first compound 0.316 µM
[22] = second compound 1 µM, first compound 1 µM
[23] = second compound 1 µM, first compound 3.16 µM
[24] = second compound 1 µM, first compound 10 µM
[25] = second compound 3.16 µM, first compound 0.0316 µM
[26] = second compound 3.16 µM, first compound 0.1 µM
[27] = second compound 3.16 µM, first compound 0.316 µM
[28] = second compound 3.16 µM, first compound 1 µM
[29] = second compound 3.16 µM, first compound 3.16 µM
[30] = second compound 3.16 µM, first compound 10 µM
[31] = second compound 10 µM, first compound 0.0316 µM
[32] = second compound 10 µM, first compound 0.1 µM
[33] = second compound 10 µM, first compound 0.316 µM
[34] = second compound 10 µM, first compound 1 µM
[35] = second compound 10 µM, first compound 3.16 µM
[36] = second compound 10 µM, first compound 10 µM
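Further: spheroids exposed to agents for seven days before readout.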
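Wherever viability, T/C is given: 100% = DMSO vehicle control viability.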

In the case of `CCCS(=O)(=O)Nc1ccc(F)c(C(=O)c2c[nH]c3ncc(-c4ccc(Cl)cc4)cc23)c1F` + CN1CCN(c2cc(C(=O)Nc3cc4cc(-c5cnn(C)c5)ccc4cn3)ccn2)CC1, the IC50 (second compound 0.0316 µM) is reported as > 10000 nM, the IC50 (second compound 0.1 µM) is reported as > 10000 nM and the IC50 (second compound 0.316 µM) is reported as < 31.6 nM. The IC50 (second compound 1 µM) was < 31.6 nM, the IC50 (second compound 3.16 µM) was < 31.6 nM and the IC50 (second compound 10 µM) was < 31.6 nM. The viability, T/C [1] was 121%, the viability, T/C [2] was 94.7% and the viability, T/C [3] was 87.2%. It also gave a viability, T/C [4] of 87.9%, a viability, T/C [5] of 91.7% and a viability, T/C [6] of 104%. The viability, T/C [7] was 70.8%, the viability, T/C [8] was 72.7% and the viability, T/C [9] was 68.9%. For the same compound, the viability, T/C [10] was 80.9%, the viability, T/C [11] was 86.6% and the viability, T/C [12] was 93.5%. It also gave a viability, T/C [13] of 37.9%, a viability, T/C [14] of 36.1% and a viability, T/C [15] of 37.9%. For the same compound, the viability, T/C [16] was 46.5%, the viability, T/C [17] was 46.4% and the viability, T/C [18] was 44.5%. The viability, T/C [19] was 5.76%, the viability, T/C [20] was 9.94% and the viability, T/C [21] was 5.5%. The viability, T/C [22] was 5.99%, the viability, T/C [23] was 5.05% and the viability, T/C [24] was 5.13%. The viability, T/C [25] was 5.86%, the viability, T/C [26] was 6.15% and the viability, T/C [27] was 6.62%. It also gave a viability, T/C [28] of 4.48%, a viability, T/C [29] of 5.63% and a viability, T/C [30] of 8.05%. The viability, T/C [31] was 5.01%, the viability, T/C [32] was 2.99% and the viability, T/C [33] was 2.11%. The viability, T/C [34] was 1.75%, the viability, T/C [35] was 1.53% and the viability, T/C [36] was 1.67%.
In the case of `COC1C=CCC(C)C(C)S(=O)(=O)NC(=O)c2ccc3c(c2)N(CC2CCC21)CC1(CCCc2cc(Cl)ccc21)CO3` (centres undefined) + CN1CCN(c2cc(C(=O)Nc3cc4cc(-c5cnn(C)c5)ccc4cn3)ccn2)CC1, the IC50 (second compound 0.0316 µM) is reported as 1750 nM, the IC50 (second compound 0.1 µM) is reported as 773 nM and the IC50 (second compound 0.316 µM) is reported as < 31.6 nM. The IC50 (second compound 1 µM) was < 31.6 nM, the IC50 (second compound 3.16 µM) was < 31.6 nM and the IC50 (second compound 10 µM) was < 31.6 nM. For the same compound, the viability, T/C [1] was 95.5%, the viability, T/C [2] was 89.9% and the viability, T/C [3] was 83.1%. For the same compound, the viability, T/C [4] was 51.5%, the viability, T/C [5] was 55% and the viability, T/C [6] was 40.1%. It also gave a viability, T/C [7] of 85%, a viability, T/C [8] of 68.4% and a viability, T/C [9] of 63.3%. It also gave a viability, T/C [10] of 40.8%, a viability, T/C [11] of 46.4% and a viability, T/C [12] of 43.6%. The viability, T/C [13] was 36.8%, the viability, T/C [14] was 34% and the viability, T/C [15] was 30.2%. The viability, T/C [16] was 20.7%, the viability, T/C [17] was 13.6% and the viability, T/C [18] was 13.3%. For the same compound, the viability, T/C [19] was 7.48%, the viability, T/C [20] was 5.89% and the viability, T/C [21] was 7.05%. The viability, T/C [22] was 7.13%, the viability, T/C [23] was 5.61% and the viability, T/C [24] was 7.24%. The viability, T/C [25] was 5.37%, the viability, T/C [26] was 6.94% and the viability, T/C [27] was 7.7%. It also gave a viability, T/C [28] of 7.72%, a viability, T/C [29] of 7.14% and a viability, T/C [30] of 6.03%. It also gave a viability, T/C [31] of 3.03%, a viability, T/C [32] of 1.85% and a viability, T/C [33] of 2.06%. For the same compound, the viability, T/C [34] was 6.57%, the viability, T/C [35] was 2.43% and the viability, T/C [36] was 1.39%.
